# Reference: publication PMC5988656, “Phase I studies of AZD1208, a proviral integration Moloney virus kinase inhibitor in solid and haematological cancers” (British Journal of Cancer, 2018)
# Values joined by “and” are separate entries in the source; they are usually repeats but may differ in a detail not shown here. Equal values may be shown once.
# Test: AML dose-escalation study: pharmacokinetics (plasma, urine)
# Assay type: in vivo, human
# Settings: for Gmean plasma concentration of AZD1208 (± SD): Cycle 1, Day 14
# Procedure: The schedules for collection of blood and urine samples for PK analyses in each cohort in both studies are described in Supplementary Table 1. When necessary for clinical response assessment in the AML study, a bone marrow sample for PK analysis was collected at Cycle 1, Day 28.
# The concentration of AZD1208 in plasma and urine was determined by Covance, on behalf of Clinical Bioanalysis Alliance at AstraZeneca R&D, using a bioanalytical method. A volume of 0.05 ml of K2EDTA human plasma sample was extracted by liquid–liquid extraction using 0.7 ml of methyl tert-butyl ether. Approximately 100 µl of the supernatant was transferred, evaporated to dryness and reconstituted with 350 µl of 1:1 methanol:water, and a 5 µl injection was made to the high-performance liquid chromatography (HPLC) column. HPLC separations were performed on a Phenomenex LUNA C18 (50 × 2 mm, 5 µm) column using a mobile phase of 0.1% formic acid in water (A) and 0.1% formic acid in acetonitrile (B) at a flow rate of 0.6 ml/min and a column temperature of 40 °C. AZD1208-D5 was used as the internal standard. Detection was performed in a Sciex API4000 mass spectrometer, in a positive electrospray ionisation mode, using multiple reaction monitoring detection (AZD1208: 380.0–>248.1; AZD1208-D5: 385.0–>253.1).
structure (smiles),measurement,setting,value
N[C@@H]1CCCN(c2c(/C=C3\SC(=O)NC3=O)cccc2-c2ccccc2)C1 [AZD1208],Gmean plasma concentration of AZD1208 (± SD),"0.5 h post-dose, 120 mg, n=3","1758.9 (970.3, 3188.5) ng ml"
same,Gmean plasma concentration of AZD1208 (± SD),"0.5 h post-dose, 240 mg, n=6","2365.9 (976.3, 6694.0) ng ml"
same,Gmean plasma concentration of AZD1208 (± SD),"0.5 h post-dose, 480 mg, n=6","2887.4 (322.6, 25 841.7) ng ml"
same,Gmean plasma concentration of AZD1208 (± SD),"0.5 h post-dose, 700 mg, n=7","2029.2 (863.1, 4770.5) ng ml"
same,Gmean plasma concentration of AZD1208 (± SD),"1 h post-dose, 120 mg, n=3","2050.2 (1514.6, 2775.2) ng ml"
same,Gmean plasma concentration of AZD1208 (± SD),"1 h post-dose, 480 mg, n=6","4956.2 (1164.7, 21 090.8) ng ml"
same,Gmean plasma concentration of AZD1208 (± SD),"1 h post-dose, 700 mg, n=7","2013.8 (1004.8, 4035.8) ng ml"
same,Gmean plasma concentration of AZD1208 (± SD),"1 h post-dose, 900 mg, n=9","1952.5 (1166.1, 3269.1) ng ml"
same,Gmean plasma concentration of AZD1208 (± SD),"1.5 h post-dose, 120 mg, n=3","2375.1 (1849.1, 3050.7) ng ml"
same,Gmean plasma concentration of AZD1208 (± SD),"1.5 h post-dose, 240 mg, n=6","5142.8 (4058.6, 6516.6) ng ml"
same,Gmean plasma concentration of AZD1208 (± SD),"1.5 h post-dose, 480 mg, n=6","5384.2 (2123.1, 13 654.8) ng ml"
same,Gmean plasma concentration of AZD1208 (± SD),"1.5 h post-dose, 700 mg, n=7","3963.7 (2236.9, 7023.5) ng ml"
same,Gmean plasma concentration of AZD1208 (± SD),"1.5 h post-dose, 900 mg, n=9","2747.1 (1719.7, 4388.3) ng ml"
same,Gmean plasma concentration of AZD1208 (± SD),"2 h post-dose, 120 mg, n=3","2216.3 (1388.5, 3537.7) ng ml"
same,Gmean plasma concentration of AZD1208 (± SD),"2 h post-dose, 240 mg, n=6","6153.8 (5277.1, 7175.8) ng ml"
same,Gmean plasma concentration of AZD1208 (± SD),"2 h post-dose, 480 mg, n=6","5818.8 (2320.7, 14 589.5) ng ml"
same,Gmean plasma concentration of AZD1208 (± SD),"2 h post-dose, 700 mg, n=7","4388.1 (2945.6, 6536.9) ng ml"
same,Gmean plasma concentration of AZD1208 (± SD),"2 h post-dose, 900 mg, n=9","3107.5 (1803.0, 5356.1) ng ml"
same,Gmean plasma concentration of AZD1208 (± SD),"3 h post-dose, 120 mg, n=3","2052.0 (1181.0, 3565.2) ng ml"
same,Gmean plasma concentration of AZD1208 (± SD),"3 h post-dose, 240 mg, n=6","3687.8 (1657.8, 8203.5) ng ml"
same,Gmean plasma concentration of AZD1208 (± SD),"3 h post-dose, 480 mg, n=6","5515.9 (1885.1, 16 139.7) ng ml"
same,Gmean plasma concentration of AZD1208 (± SD),"3 h post-dose, 700 mg, n=7","5521.1 (2560.5, 11 905.2) ng ml"
same,Gmean plasma concentration of AZD1208 (± SD),"3 h post-dose, 900 mg, n=9","3179.0 (1505.2, 6714.4) ng ml"
same,Gmean plasma concentration of AZD1208 (± SD),"6 h post-dose, 120 mg, n=3","1761.5 (1019.2, 3044.5) ng ml"
same,Gmean plasma concentration of AZD1208 (± SD),"6 h post-dose, 240 mg, n=6","3196.3 (1504.2, 6791.5) ng ml"
same,Gmean plasma concentration of AZD1208 (± SD),"6 h post-dose, 480 mg, n=6","5420.2 (1806.5, 16 262.9) ng ml"
same,Gmean plasma concentration of AZD1208 (± SD),"6 h post-dose, 700 mg, n=7","4452.1 (2126.6, 9320.8) ng ml"
same,Gmean plasma concentration of AZD1208 (± SD),"6 h post-dose, 900 mg, n=9","2320.5 (896.7, 6004.8) ng ml"
same,Gmean plasma concentration of AZD1208 (± SD),"8 h post-dose, 120 mg, n=3","1700.4 (974.4, 2967.5) ng ml"
same,Gmean plasma concentration of AZD1208 (± SD),"8 h post-dose, 240 mg, n=6","2735.5 (1203.4, 6218.4) ng ml"
same,Gmean plasma concentration of AZD1208 (± SD),"8 h post-dose, 480 mg, n=6","5248.1 (1804.2, 15 265.9) ng ml"
same,Gmean plasma concentration of AZD1208 (± SD),"8 h post-dose, 700 mg, n=7","4064.8 (2043.6, 8085.1) ng ml"
same,Gmean plasma concentration of AZD1208 (± SD),"8 h post-dose, 900 mg, n=9","2608.4 (2223.6, 3059.7) ng ml"
same,Gmean plasma concentration of AZD1208 (± SD),"24 h post-dose, 120 mg, n=3","1248.3 (485.6, 3208.8) ng ml"
same,Gmean plasma concentration of AZD1208 (± SD),"24 h post-dose, 240 mg, n=6","1818.9 (580.7, 5697.5) ng ml"
same,Gmean plasma concentration of AZD1208 (± SD),"24 h post-dose, 480 mg, n=6","3154.5 (406.4, 24 485.6) ng ml"
same,Gmean plasma concentration of AZD1208 (± SD),"24 h post-dose, 700 mg, n=7","2302.0 (643.6, 8233.0) ng ml"
same,Gmean plasma concentration of AZD1208 (± SD),"24 h post-dose, 900 mg, n=9","593.0 (174.0, 2021.0) ng ml"
same,Gmean plasma concentration of AZD1208 (± SD),"pre-dose, 120 mg, n=3","1163.1 (335.5, 4032.0) ng ml"
same,Gmean plasma concentration of AZD1208 (± SD),"pre-dose, 240 mg, n=6","2106.9 (693.2, 6845.2) ng ml"
same,Gmean plasma concentration of AZD1208 (± SD),"pre-dose, 480 mg, n=6","2302.9 (541.6, 9792.3) ng ml"
same,Gmean plasma concentration of AZD1208 (± SD),"pre-dose, 700 mg, n=7","2513.6 (1057.2, 5976.4) ng ml"
same,Gmean plasma concentration of AZD1208 (± SD),"pre-dose, 900 mg, n=9","463.1 (444.2, 482.7) ng ml"
same,Patients with marked accumulation (>3-fold),"across the doses, 7/16 patients",44%
same,Median time to maximum plasma concentration (Tmax),after a single dose,~ 3 h
same,Differences in AZD1208 concentrations between individuals within the same cohort,after multiple doses,up to 10 fold
same,Dose proportionality of Cmax and AUC0–24,following multiple doses,less than dose proportional
same,Accumulation ratio,individual patients at 480 mg,3.6 and 0.36
same,Administered dose eliminated unchanged in urine,"within 24 h, all cohorts",< 1%
